These results are taken from PMC6463685, “WS-5 Extract of Curcuma longa, Chaenomeles sinensis, and Zingiber officinale Contains Anti-AChE Compounds and Improves β-Amyloid-Induced Memory Impairment in Mice” (Evidence-based Complementary and Alternative Medicine : eCAM, 2019).

The assay addresses T1, acetylcholinesterase (AChE).
T1 construct: AChE used with commercial BioVision colorimetric AChE assay kit
Kind of assay: colorimetric AChE kit (choline oxidase/probe), […] nm. The settings on record: 37°C, 20 min, AChE substrate 5 mM. The format is biochemical.

One may read the IC50 as the concentration needed to halve the response being measured. High values mean weaker potency, low ones greater potency. On to `O=C(O)c1ccc(O)c(O)c1` [Protocatechuic acid], for which inhibition (also printed as 10.42 μg/ml) was half-maximal at 67.6 µM (IC50).
Compound `CCCCC/C=C/C(=O)CCc1ccc(O)c(OC)c1` [6-Shogaol] registered an IC50 (also printed as 17.92 μg/ml) of 64.8 µM.
